# US20250066446A1, “FUSION PROTEINS FOR THE TREATMENT OF CARDIOMETABOLIC DISEASES” (Shattuck Labs, Inc., priority 2022, published 2025)
# “Also recorded” adds a separate entry of the source. Where no end group is shown, it is not given here.
# Columns and labels:
# [1] = Longer-term obesity model in HFD-fed mice; details: for blood glucose levels: Days 0, 1, 10 and 15; for blood glucose levels / average daily food intake: compared to the untreated mice; for plasma insulin levels on Day 15: FIG. 8C right panel; for liver weight / subcutaneous white adipose tissue (sWAT) weight: day 19 terminal necropsy, vs PBS control; for change in body weight: tail vein dosing Day 0, 4, 7, 10, 14, 18, weighed every 2 days; for collagen staining (fibrosis), picrosirius red liver sections / hepatocellular ballooning and steatosis, H&E liver histology: vs vehicle-treated mice
# Protocol: Mice (Male C57BL/6) were of approximately 13 weeks of age were housed 4 mice per cage. Following 2 weeks of acclimatation, mice were introduced to 60% kcal HFD (Research Diets D12492). Cages were changed once, then changed once a week. Weekly body weights and non-fasted blood glucose were collected.
# Mice were injected by tail vein with vehicle or the drugs on Day 0, Day 4, Day 7, Day 10, Day 14, and Day 18. Body weights were measured every 2 days. Change in body weight was calculated and plotted.
# Cumulative food intake was measured between day 0 and 3, between day 4 and 7, between day 7 and day 11, and between day 11 and day 14, and represented as average daily food intake. For food consumption, remaining food was weighed on days 3, 8, and 15, and subtracted from the starting weight. This value was then normalized to the number of mice in the cage, and the number of days the mice had access to the food prior to weighing.
# Blood glucose levels were measured on Days 0, 1, 10 and 15 and plotted.
# On day 19 during terminal necropsy, liver and subcutaneous white adipose tissue were recovered weighed from treated animals.
# To further analyze the changes in liver, histopathological analysis was conducted. Briefly, the liver tissue was stained with hematoxylin and eosin (H&E) and evaluated using standard techniques.
# GlPR = molecular target: T1, GlPR (Rattus norvegicus, UniProt P43219); assay: pGloSensor-22F cAMP biosensor assay in rat INS-1 cells (GlPR agonism and antagonism); format: cell-based; design: dose or concentration left out as unconfirmed; details: increasing doses mixed with GlP(Ag)
# T1 construct: endogenous in cells; host or cells: rat INS-1 insulinoma cells carrying a cAMP reporter (a cAMP-luciferase reporter in A2, the pGloSensor-22F biosensor in A4)
# T1 sequence (P43219 19-455): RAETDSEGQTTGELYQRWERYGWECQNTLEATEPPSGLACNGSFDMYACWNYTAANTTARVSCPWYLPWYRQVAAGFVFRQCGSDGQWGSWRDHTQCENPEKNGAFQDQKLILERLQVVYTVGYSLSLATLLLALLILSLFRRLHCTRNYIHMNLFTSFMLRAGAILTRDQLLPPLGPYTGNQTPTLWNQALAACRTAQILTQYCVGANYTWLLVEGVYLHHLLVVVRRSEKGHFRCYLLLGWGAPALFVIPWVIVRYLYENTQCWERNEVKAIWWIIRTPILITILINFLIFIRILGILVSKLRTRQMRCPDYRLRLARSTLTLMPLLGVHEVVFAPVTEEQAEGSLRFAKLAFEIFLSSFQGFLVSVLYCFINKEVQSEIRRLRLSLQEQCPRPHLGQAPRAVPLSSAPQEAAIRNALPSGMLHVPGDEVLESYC
# Protocol: Briefly, rat INS-1 cells having pGloSensor-22F (Promega) were constructed and used to evaluate GlPR agonism and antagonism. […] The conformational change leads to the activation of the luciferase enzyme, thereby allowing detection of activation of GlPR, which produces cAMP upon activation.
# Immediately after the addition, the luminescence of the cells was measured, normalized using the basal luminescence and plotted.
# [2] = molecular target: GlP receptor (GlPR) of rat INS-1 insulinoma cells (UniProt P43219)
# [3] = human NASH patients; cited from earlier work
# [4] = molecular target: glucose-dependent insulinotropic polypeptide receptor (GlPR) on GeneBLAzer GlPR-CRE-bla HEK293T cells (UniProt P48546); assay: cell-based or functional assay
# [5] = molecular target: T2, glucose-dependent insulinotropic polypeptide receptor (GlPR) (Homo sapiens, UniProt P48546); assay: GeneBLAzer GlPR-CRE-bla HEK293T cell-based reporter assay; details: 5 hours incubation; for 460/530 ratio, indicative of the activation of GlPR: increasing amounts
# T2 construct: host or cells: GeneBLAzer GIPR-CRE-bla HEK293T cells
# T2 sequence (P48546 22-466): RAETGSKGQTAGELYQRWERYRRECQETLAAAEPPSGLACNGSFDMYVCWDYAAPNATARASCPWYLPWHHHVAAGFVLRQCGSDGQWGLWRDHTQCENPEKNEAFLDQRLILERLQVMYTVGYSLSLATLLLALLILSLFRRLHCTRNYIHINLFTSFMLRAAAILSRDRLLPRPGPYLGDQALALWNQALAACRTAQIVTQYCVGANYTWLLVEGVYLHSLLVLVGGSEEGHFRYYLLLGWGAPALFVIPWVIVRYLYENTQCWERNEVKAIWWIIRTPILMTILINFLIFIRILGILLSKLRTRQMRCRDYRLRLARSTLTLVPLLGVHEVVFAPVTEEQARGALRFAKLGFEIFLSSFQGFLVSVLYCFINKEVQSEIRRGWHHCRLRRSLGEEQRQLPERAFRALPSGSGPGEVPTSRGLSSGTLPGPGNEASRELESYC
# Protocol: This assay is diagrammatically represented in FIG. 3A. […] In the presence of the β-lactamase LiveBLAzer™ substrate, cells expressing β-lactamase fluoresce blue (460 nm), while those not expressing β-lactamase fluoresce green (530 nm); higher 460/530 ratio indicates the activation of GlPR.
# Briefly, GeneBLAzer® GlPR-CRE-bla HEK293T cells were added to wells of black-wall assay plates. […] To each well, LiverBLAzer-FRET B/G substrate mixture was added. The plate was covered with plate sealer and incubated at room temperature for 2 hours in the dark. Fluorescence emission was measured on SpectraMax plate reader at 460 nm and 530 nm with excitation set to 409 nm. After subtraction of background, average value at 460 nm (blue color) was divided by average value at 530 nm (green color) to obtain the 460/530 ratio.
# [6] = Glucose tolerance test (GTT) model in HFD-fed mice; format: in vivo, mice (Male C57BL/6); details: i.v. treatment, 18 hours fast, 2 g/kg glucose, 15 min to 2 hours
# Protocol: Cages were changed once, then changed once a week.
# The mice administered the above treatment by i.v. injections. The mice were then fasted for 18 hours and administered a dose of 2 g/kg glucose by i.v. injections. Blood samples were drawn by tail clip bleeding at 15, 30 and 60 minutes post dosing and cardiac bleeding was used at 2 hours after glucose injection as end-point.
# GlP receptor (GlPR) = molecular target: T3, GlP receptor (GlPR) (Rattus norvegicus, UniProt P43219); assay: cAMP-Glo assay in rat insulinoma INS-1 cells harboring a cAMP-luciferase reporter gene; format: cell-based; details: 1 hour glucose, then 2 hour incubation with increasing amounts
# T3 construct: endogenous in cells; host or cells: rat INS-1 insulinoma cells carrying a cAMP reporter (a cAMP-luciferase reporter in A2, the pGloSensor-22F biosensor in A4)
# T3 sequence (P43219 19-455): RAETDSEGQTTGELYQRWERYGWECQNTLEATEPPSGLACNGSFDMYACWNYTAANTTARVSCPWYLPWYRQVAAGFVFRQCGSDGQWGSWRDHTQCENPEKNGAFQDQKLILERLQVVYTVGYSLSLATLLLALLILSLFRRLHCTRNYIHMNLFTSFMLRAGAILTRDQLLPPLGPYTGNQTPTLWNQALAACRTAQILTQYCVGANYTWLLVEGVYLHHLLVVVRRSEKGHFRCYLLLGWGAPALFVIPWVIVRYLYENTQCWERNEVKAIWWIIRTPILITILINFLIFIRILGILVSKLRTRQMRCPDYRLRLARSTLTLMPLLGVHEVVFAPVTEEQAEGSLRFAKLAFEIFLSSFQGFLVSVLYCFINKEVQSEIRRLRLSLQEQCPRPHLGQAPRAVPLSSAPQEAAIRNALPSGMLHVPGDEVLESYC
# Excerpt: Rat insulinoma INS-1 cells harboring a cAMP-luciferase reporter gene were used to study the activation of GlPR. Without wishing to be bound by theory, the activation of GlPR leads to temporary depletion of ATP because of consumption of ATP in cyclization reaction to produce cAMP as well as by phosphorylation by protein kinase A of its substrate. Without wishing to be bound by theory, the temporary depletion of ATP leads to an inhibition of luciferase activity, which needs ATP as a substrate.
# [7] = system: rat insulinoma INS-1 cells; assay: in vitro glucose-stimulated insulin secretion (GSIS) in INS-1 cells; format: cell-based; details: 1 hour glucose, then 2 hour incubation; ELISA
# Excerpt: X is a known inducer of GSIS.
molecule,measurement,setting,value
dulaglutide [reference compound],blood glucose levels,[1],decrease in blood glucose
same,plasma insulin levels on Day 15,[1],significant decrease in the levels of insulin
same,plasma insulin levels on Day 1,[1]; between 15 and 120 minutes after treatment,rapid decrease in insulin levels
same,average daily food intake,[1],decrease in food intake
same,liver weight,[1],livers of control mice that received only PBS were much heavier
same,subcutaneous white adipose tissue (sWAT) weight,[1],decreased
same,change in body weight,[1],progressive weight loss
same,"tolerability, clinical observations",[1]; tail vein dosing Day 0 to Day 18,well tolerated and no overt toxicities were noted
same,"collagen staining (fibrosis), picrosirius red liver sections",[1],decrease in collagen staining
same,"hepatocellular ballooning and steatosis, H&E liver histology",[1],decrease in hepatocellular ballooning and steatosis
"GlP(AntPro3NH2): GlP antagonist peptide derivative of GlP(AntPro3), NH2 form (YAPGTFISDYSIAMDKIHQQDFVNWLLAQKGKKNDWKHNITQ-NH2)",inhibition of GlP(Ag)-induced activation of the cAMP-luciferase reporter gene (GlPR antagonism),GlPR,more potent inhibition of GlP agonist signaling than the others tested; also recorded: maximal level of a dose-dependent inhibition of GlP(Ag)-induced activation
tirzepatide (peptide),"EC50 (read off the curve): fall of cAMP-Glo luminescence, rat INS-1 cells",[2],0.003 pM
Pegbelfermin [Pegbelfermin (BMS-986036)],liver fat content,[3],reduce liver fat content
GlP(Ag)-Fc fusion protein (from UniProt P09681 52-93),"EC50 (read off the curve): fall of cAMP-Glo luminescence, rat INS-1 cells",[2],0.007 pM
same,"EC50 of GlPR activation (460/530 ratio, GeneBLAzer GlPR-CRE-bla HEK293T beta-lactamase reporter)",[4],11.8 pM
"GlP(AntPro3): GlP Antagonist (amino acids 1-42, having a E3P substitution); SEQ ID NO: 97 (YAPGTFISDYSIAMDKIHQQDFVNWLLAQKGKKNDWKHNITQ)",inhibition of GlP(Ag)-induced activation of the cAMP-luciferase reporter gene (GlPR antagonism),GlPR,more potent inhibition of GlP agonist signaling than the others tested; also recorded: maximal level of a dose-dependent inhibition of GlP(Ag)-induced activation
tirzepatide [reference compound],"460/530 ratio, indicative of the activation of GlPR",[5],dose-dependent and saturable increase in 460/530 ratio
same,blood glucose levels,[1],decrease in blood glucose
same,plasma insulin levels on Day 15,[1],significant decrease in the levels of insulin
same,average daily food intake,[1],decrease in food intake
same,"hepatocellular ballooning and steatosis, H&E under higher magnifications",[1]; compared to untreated animals,significant decrease in hepatocellular ballooning and steatosis
same,liver weight,[1],livers of control mice that received only PBS were much heavier
same,subcutaneous white adipose tissue (sWAT) weight,[1],decreased
same,change in body weight,[1],progressive weight loss
same,"collagen staining (fibrosis), picrosirius red liver sections",[1],decrease in collagen staining
same,"hepatocellular ballooning and steatosis, H&E liver histology",[1],decrease in hepatocellular ballooning and steatosis
same,serum insulin following glucose administration,[6],rapid induction of insulin
same,serum glucose following glucose administration,[6]; vs PBS control,much smaller increase in serum glucose
same,"luciferase activity (cAMP-Glo), activation of GlPR",GlP receptor (GlPR),dose-dependent and saturable inhibition of luciferase with similar potency
GlP(Ag)-Fc-FGF19: GlP fused to FGF19 via a hinge-CH2-CH3 Fc domain derived from IgG1; SEQ ID NO: 88 (protein) YAEGTFISDYSIAMDKIHQQDFVNWLLAQKGKKNDWKHNITQPCPAPEAAGGPSVFLFPPKPKDTLMISRTPEVTCVVVDVSHEDPEVKFNWYVDGVEVHNAKTKPREEQYNSTYRVVSVLTVLHQDWLNGKEYKCKVSNKALPAPIEKTISKAKGQPREPQVYTLPPSRDELTKNQVSLTCLVKGFYPSDIAVEWESNGQPENNYKTTPPVLDSDGSFFLYSKLTVDKSRWQQGNVFSCSVMHEALHNHYTQKSLSLSPGKIEGRMDRDSSPLVHYGWGDPIRLRHLYTSGPHGLSSCFLRIRADGVVDCARGQSAHSLLEIKAVALRTVAIKGVHSVRYLCMGADGKMQGLLQYSEEDCAFEEEIRPDGYNVYRSEKHRLPVSLSSAKQRQLYKNRGFLPLSHFLPMLPMVPEEPEDLRGHLESDMFSSPLETDSMDPFGLVTGLEAVRSPSFEK,EC50,"[5]; 460/530 ratio, purified proteins, read-out: EC50 of GlPR activation",13.1 pM
same,"460/530 ratio, indicative of the activation of GlPR",[5],dose-dependent and saturable increase in 460/530 ratio
same,insulin in the culture supernatant (GSIS),[7],"stimulated insulin production to a similar, if not greater magnitude than dulaglutide or tirzepatide"
same,"luciferase activity (cAMP-Glo), activation of GlPR",GlP receptor (GlPR),dose-dependent and saturable inhibition of luciferase with similar potency
